PMC5641083, “Blockage of FOXP3 transcription factor dimerization and FOXP3/AML1 interaction inhibits T regulatory cell activity: sequence optimization of a peptide inhibitor” (Oncotarget, 2017)

Tests used:
FOXP3/AML1 interaction = biological target: T1, FOXP3/AML1 interaction (Homo sapiens, UniProt Q9BZS1); assay: AlphaScreen FOXP3/AML1 heterodimerization assay; assay type: biochemical
T1 sequence (Q9BZS1 1-431): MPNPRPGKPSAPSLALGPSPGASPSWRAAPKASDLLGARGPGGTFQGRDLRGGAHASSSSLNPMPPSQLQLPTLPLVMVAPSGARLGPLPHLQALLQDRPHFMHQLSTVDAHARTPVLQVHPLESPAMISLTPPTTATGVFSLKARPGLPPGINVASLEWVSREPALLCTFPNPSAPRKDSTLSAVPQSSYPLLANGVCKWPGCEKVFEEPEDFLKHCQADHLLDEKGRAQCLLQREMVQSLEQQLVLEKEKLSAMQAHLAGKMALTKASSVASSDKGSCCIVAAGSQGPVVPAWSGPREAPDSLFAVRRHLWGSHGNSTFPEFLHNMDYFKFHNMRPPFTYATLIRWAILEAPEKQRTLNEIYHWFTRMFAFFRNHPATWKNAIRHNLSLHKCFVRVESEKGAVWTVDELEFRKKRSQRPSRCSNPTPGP
Excerpt: AML1 is required for IL-2 and IFN-γ gene expression in conventional CD4+ T cells and its interaction with FOXP3 is needed for the immunosuppressive activity of Tregs. On the other hand, it has been described that the leucine zipper region is necessary and sufficient to mediate FOXP3 homo-dimerization, which is required for its function as a transcriptional regulator [13, 15, 20]. Thus, since P60 binds to this FOXP3 intermediate region, we analyzed if it could act as a decoy molecule to inhibit FOXP3 homodimerization or the FOXP3-AML1 heterodimerization. The capacity of FOXP3 to homodimerize was measured using the […] assay platform AlphaScreen™ (Perkin Elmer). Previous protein-cross titration experiment using different concentrations of FOXP3-6His (from 1000 to 0 nM) and GST-FOXP3 (from 300 to 0 nM) allowed us to define the optimal protein concentrations to analyze FOXP3 homodimerization (Figure 2A). […] We also tested if GST tagged FOXP3 was able to interact with AML1 protein tagged with 6 His at the N-terminus. As shown in the cross titration experiments in Figure 2C, a specific FOXP3-AML1 heterodimerization was visualized as an increase in the AlphaScreen signal.
FOXP3/AML1 heterodimerization, as well as FOXP3/FOXP3 homodimerization were analyzed by Alphascreen technology according to the manufacturer's instructions (Perkin Elmer, Benelux) as previously described.

Treg cells = assay: Treg pre-treated with peptide, then Treg suppression assay; assay type: cell-based; conditions: Treg incubated with peptide at 20 μM for 24 hours, washed
Excerpt: FOXP3 is critical for the development and function of Tregs, but also, FOXP3 can be transiently expressed in effector T cells after TCR stimulation leading to hyporesponsiveness of the effector T cell. […] We speculate that the Foxp3 inhibitory peptides may work at two levels: (i) reducing Treg function and (ii) releasing the brake of FOXP3 transient expression on effector T cells. Thus, we studied the effect of CM-1315 in T cell proliferation and IL-2 and IFN-γ production in effector T cells in response to anti-CD3 stimulation. The original P60, the optimized peptide CM-1315 and a control peptide were tested. […] We also studied the effect of the peptides directly in Tregs. Thus, freshly isolated Treg cells were pre-treated with the peptides for 24 h, and after extensive washing, they were used in conventional Treg suppression assay in coculture with effector T cells and anti-CD3 stimulation.
Supplementary Figure 4: Effect of Foxp3 inhibitory peptides in effector T cells alone. […] T cell proliferation (A) and IL-2 and IFN-γ (B and C) production in response to anti-CD3 stimulation was measured by 3H-thymidine incorporation and by ELISA respectively.
Supplementary Figure 5: Effect of FOXP3 inhibitory peptides in Treg cells. […] T cell proliferation was measured by 3H-thymidine incorporation assay. […]

CT26 tumor cells = assay: AH1 vaccination and CT26 tumor challenge; assay type: in vivo, BALB/c mice; conditions: AH1 in IFA, peptide 10 nanomol/mice/day i.p. 10 days, challenge 10^6 CT26 cells s.c. day 10
Method: In those experiments, BALB/c mice were immunized with peptide AH1 emulsified in IFA and treated daily with saline or with 50 nanomol/mice/day of peptide P60 i.p. from day 0 to day 9 after immunization. To study the efficacy of CM-1315, our optimized version of P60, mice immunized with AH1 were treated with 10 nanomol/mice/day of P60 or CM-1315 and challenged at day 10 by s.c. injection with 10^6 CT26 tumor cells (instead of 5 × 10^5 cells used in our previous study). As control, groups of mice were injected with AH1 alone or left untreated.
For tumor rejection experiments, Hepa-129 cells (10^6 cells/mouse), were injected subcutaneously (sc) in C3H/HeN mice (n = 6). Ten days later, when the tumor reached 5 mm in diameter, mice were randomly divided into different experimental groups. A group of mice were treated i.p. with anti-PD1 antibodies (50 μg/mouse). Antibody administration was repeated one week after this first administration. A group of mice treated with anti-PD1 also received the cyclic peptide CM-1215 from days 10 to 20 (50 μg/mice/day). Tumor size, presented as the average of two perpendicular diameters (millimetres), was measured at regular intervals. Mice were sacrificed when the mean tumor diameter was greater than 20 mm. […] Tumor size was monitored twice a week with a calliper and it was expressed according to the formula V = (length × width^2)/2. […]

H-RDFQSFRKMWPFFAM-OH [P60]
Inhibition of FOXP3-AML1 heterodimerization (in words) (FOXP3/AML1 interaction): able to reduce the signal in a dose dependent manner | Inhibition of suppressive activity of pre-treated Treg (in words) (Treg cells): not able to inhibit significantly Treg cells, although some reversal of suppression was observed | Protection against CT26 tumor challenge (in words) (CT26 tumor cells): only animals treated with CM-1315 remained protected
